In patent publication US20250215029A1 (Recludix Pharma, Inc., priority 2022, published 2025):

Assays:
[1] = biological target: T1, Recombinant STAT6 protein (STAT6 (W123-T658)) (Homo sapiens, UniProt P42226); test: STAT6 Fluorescence Polarization (FP) Assay; assay type: binding; conditions: STAT6 (W123-T658) 250 nM, probe 5-FAM-Ap[…]-NH2 2 nM, 45-minute incubation; read-out: STAT6 (FP assay IC50 class)
T1 construct: Recombinant STAT6 protein (STAT6 (W123-T658))
T1 sequence (P42226 123-658): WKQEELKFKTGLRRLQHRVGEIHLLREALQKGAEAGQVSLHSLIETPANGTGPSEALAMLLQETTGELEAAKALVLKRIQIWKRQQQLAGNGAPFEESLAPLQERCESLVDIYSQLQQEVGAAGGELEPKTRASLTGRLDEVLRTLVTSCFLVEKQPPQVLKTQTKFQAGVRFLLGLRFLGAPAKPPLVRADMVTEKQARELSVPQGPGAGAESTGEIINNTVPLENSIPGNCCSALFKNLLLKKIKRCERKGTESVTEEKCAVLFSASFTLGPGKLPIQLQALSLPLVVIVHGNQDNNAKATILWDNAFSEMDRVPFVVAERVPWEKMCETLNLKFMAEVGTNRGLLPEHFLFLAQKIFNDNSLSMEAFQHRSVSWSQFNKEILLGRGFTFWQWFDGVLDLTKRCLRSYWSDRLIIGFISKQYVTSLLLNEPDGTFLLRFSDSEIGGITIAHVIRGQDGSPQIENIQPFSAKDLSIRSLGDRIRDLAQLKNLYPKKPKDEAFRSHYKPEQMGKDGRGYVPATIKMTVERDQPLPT
Procedure, shortened: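 Probe displacement format: serially diluted compounds incubated 45 min at room temperature with 2 nM fluorescent phosphopeptide and 250 nM STAT6 (W123-T658) in pH 7.4 HEPES buffer, 1% DMSO final. Polarization signal plotted against log concentration, IC50 fitted by nonlinear regression.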

[2] = biological target: T2, Recombinant STAT3 protein (STAT3 (G127-I722)) (Homo sapiens, UniProt P40763); test: STAT3 Fluorescence Polarization (FP) Assay; assay type: binding; conditions: STAT3 (G127-I722) 25 nM, probe 5-FAM-GpYLPQTV-NH2 2 nM, 45-minute incubation; read-out: STAT3 (FP assay IC50 class)
T2 construct: Recombinant STAT3 protein (STAT3 (G127-I722))
Procedure, shortened: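 Displacement of a 2 nM 5-FAM-labelled pY peptide (GpYLPQTV) from 25 nM recombinant STAT3 (G127-I722) was monitored by fluorescence polarization. Incubation lasted 45 min at room temperature in pH 7.4 HEPES buffer containing 1% DMSO.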

T2 sequence (P40763 127-722): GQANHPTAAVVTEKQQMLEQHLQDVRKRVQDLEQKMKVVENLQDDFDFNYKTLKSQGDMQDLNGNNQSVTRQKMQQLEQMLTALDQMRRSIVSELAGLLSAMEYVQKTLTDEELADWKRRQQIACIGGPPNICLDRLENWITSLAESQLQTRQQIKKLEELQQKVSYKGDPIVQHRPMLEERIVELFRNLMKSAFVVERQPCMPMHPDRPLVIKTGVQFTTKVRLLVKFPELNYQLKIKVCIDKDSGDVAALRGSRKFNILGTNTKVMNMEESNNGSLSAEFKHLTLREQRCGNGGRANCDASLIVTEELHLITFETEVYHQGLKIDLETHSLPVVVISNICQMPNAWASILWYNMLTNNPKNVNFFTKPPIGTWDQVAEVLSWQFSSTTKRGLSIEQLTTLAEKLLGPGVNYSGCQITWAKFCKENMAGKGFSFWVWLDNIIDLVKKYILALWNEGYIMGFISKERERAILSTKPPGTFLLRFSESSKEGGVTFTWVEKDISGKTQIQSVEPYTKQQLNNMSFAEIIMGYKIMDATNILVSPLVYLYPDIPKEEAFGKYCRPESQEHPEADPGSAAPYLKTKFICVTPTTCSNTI

SMILES | IC50 [1] | IC50 [2]
O=C(N[C@H]1CCC[C@H]2CC[C@@H](C(=O)N3CC(c4cnccn4)C3)N2C1=O)c1cc2cc(C(F)(F)P(=O)(O)O)ccc2s1 [Compound 797, (difluoro(2-(((3S,6S,9aS)-5-oxo-3-(3-(pyrazin-2-yl)azetidine-1-carbonyl)octahydro-1H-pyrrolo[1,2-a]azepin-6-yl)carbamoyl)benzo [b]thiophen-5-yl)methyl) phosphonic acid] | 3000 to 30000 nM | 100 to 1000 nM
Cn1ccnc1C1CN(C(=O)[C@@H]2CC[C@@H]3CCC[C@H](NC(=O)c4cc5cc(C(F)(F)P(=O)(O)O)ccc5s4)C(=O)N32)C1 [Compound 799, (difluoro(2-(((3S,6S,9aS)-3-(3-(1-methyl-1H-imidazol-2-yl)azetidine-1-carbonyl)-5-oxooctahydro-1H-pyrrolo[1,2-a]azepin-6-yl)carbamoyl)benzo [b]thiophen-5-yl)methyl) phosphonic acid] | 300 to 3000 nM | < 100 nM
O=C(N[C@H]1CCCC[C@H]2CC[C@@H](C(=O)N3Cc4cccnc4C3)N2C1=O)c1cc2cc(C(F)(F)P(=O)(O)O)ccc2s1 [Compound 801, ((2-(((3S,6S,10aS)-3-(6,7-dihydro-5H-pyrrolo[3,4-b]pyridine-6-carbonyl)-5-oxodecahydropyrrolo [1,2-a]azocin-6-yl)carbamoyl)benzo [b]thiophen-5-yl)difluoromethyl) phosphonic acid] | 3000 to 30000 nM | 100 to 1000 nM
O=C(N[C@H]1CCCC[C@H]2CC[C@@H](C(=O)N3CCc4[nH]ncc4C3)N2C1=O)c1cc2cc(C(F)(F)P(=O)(O)O)ccc2s1 [Compound 802, (difluoro(2-(((3S,6S,10aS)-5-oxo-3-(4,5,6,7-tetrahydro-1H-pyrazolo[4,3-c]pyridine-5-carbonyl)decahydropyrrolo[1,2-a]azocin-6-yl)carbamoyl)benzo [b]thiophen-5-yl)methyl) phosphonic acid] | 300 to 3000 nM | 1000 to 10000 nM
N#Cc1cnc(C2CN(C(=O)[C@@H]3CC[C@@H]4CCCC[C@H](NC(=O)c5cc6cc(C(F)(F)P(=O)(O)O)ccc6s5)C(=O)N43)C2)nc1 [Compound 806, ((2-(((3S,6S,10aS)-3-(3-(5-cyanopyrimidin-2-yl)azetidine-1-carbonyl)-5-oxodecahydropyrrolo [1,2-a]azocin-6-yl)carbamoyl)benzo [b]thiophen-5-yl)difluoromethyl) phosphonic acid] | 3000 to 30000 nM | < 100 nM
CCOC1(c2nncn2C)CN(C(=O)[C@@H]2CC[C@@H]3CCC[C@H](NC(=O)c4cc5cc(C(F)(F)P(=O)(O)O)ccc5s4)C(=O)N32)C1 [Compound 808, ((2-(((3S,6S,9aS)-3-(3-ethoxy-3-(4-methyl-4H-1,2,4-triazol-3-yl)azetidine-1-carbonyl)-5-oxooctahydro-1H-pyrrolo[1,2-a]azepin-6-yl)carbamoyl)benzo [b]thiophen-5-yl)difluoromethyl) phosphonic acid] | 3000 to 30000 nM | 100 to 1000 nM
O=C(N[C@H]1CCC[C@H]2CC[C@@H](C(=O)N3CC(c4nccc(O)n4)C3)N2C1=O)c1cc2cc(C(F)(F)P(=O)(O)O)ccc2s1 [Compound 809, (difluoro(2-(((3S,6S,9aS)-3-(3-(4-hydroxypyrimidin-2-yl)azetidine-1-carbonyl)-5-oxooctahydro-1H-pyrrolo[1,2-a]azepin-6-yl)carbamoyl)benzo [b]thiophen-5-yl)methyl) phosphonic acid] | 3000 to 30000 nM | < 100 nM
O=C(N[C@H]1CCCC[C@H]2CC[C@@H](C(=O)N3CC(c4ccc(=O)[nH]c4)C3)N2C1=O)c1cc2cc(C(F)(F)P(=O)(O)O)ccc2s1 [Compound 816, (difluoro(2-(((3S,6S,10aS)-5-oxo-3-(3-(6-oxo-1,6-dihydropyridin-3-yl)azetidine-1-carbonyl)decahydropyrrolo[1,2-a]azocin-6-yl)carbamoyl)benzo [b]thiophen-5-yl)methyl) phosphonic acid] | 3000 to 30000 nM | 100 to 1000 nM

More lines, now with the values ahead:

IC50 [1] | IC50 [2] | SMILES
3000 to 30000 nM | 100 to 1000 nM | COC1(c2nncn2C)CN(C(=O)[C@@H]2CC[C@@H]3CCC[C@H](NC(=O)c4cc5cc(C(F)(F)P(=O)(O)O)ccc5s4)C(=O)N32)C1 [Compound 796, (difluoro(2-(((3S,6S,9aS)-3-(3-methoxy-3-(4-methyl-4H-1,2,4-triazol-3-yl)azetidine-1-carbonyl)-5-oxooctahydro-1H-pyrrolo[1,2-a]azepin-6-yl)carbamoyl)benzo [b]thiophen-5-yl)methyl) phosphonic acid]
300 to 3000 nM | 1000 to 10000 nM | CN(Cc1cc[nH]c(=O)c1)C(=O)[C@@H]1CC[C@@H]2CCCC[C@H](NC(=O)c3cc4cc(C(F)(F)P(=O)(O)O)ccc4s3)C(=O)N21 [Compound 800, (difluoro(2-(((3S,6S,10aS)-3-(methyl((2-oxo-1,2-dihydropyridin-4-yl)methyl)carbamoyl)-5-oxodecahydropyrrolo [1,2-a]azocin-6-yl)carbamoyl)benzo [b]thiophen-5-yl)methyl) phosphonic acid]
300 to 3000 nM | < 100 nM | O=C(N[C@H]1CCCC[C@H]2CC[C@@H](C(=O)N3CC(c4ccc[nH]c4=O)C3)N2C1=O)c1cc2cc(C(F)(F)P(=O)(O)O)ccc2s1 [Compound 803, (difluoro(2-(((3S,6S,10aS)-5-oxo-3-(3-(2-oxo-1,2-dihydropyridin-3-yl)azetidine-1-carbonyl)decahydropyrrolo[1,2-a]azocin-6-yl)carbamoyl)benzo [b]thiophen-5-yl)methyl) phosphonic acid]
300 to 3000 nM | 100 to 1000 nM | Cn1cnnc1C1(O)CN(C(=O)[C@@H]2CC[C@@H]3CCC[C@H](NC(=O)c4cc5cc(C(F)(F)P(=O)(O)O)ccc5s4)C(=O)N32)C1 [Compound 807, (difluoro(2-(((3S,6S,9aS)-3-(3-hydroxy-3-(4-methyl-4H-1,2,4-triazol-3-yl)azetidine-1-carbonyl)-5-oxooctahydro-1H-pyrrolo[1,2-a]azepin-6-yl)carbamoyl)benzo [b]thiophen-5-yl)methyl) phosphonic acid]
300 to 3000 nM | < 100 nM | N#Cc1cccc(C2CN(C(=O)[C@@H]3CC[C@@H]4CCC[C@H](NC(=O)c5cc6cc(C(F)(F)P(=O)(O)O)ccc6s5)C(=O)N43)C2)n1 [Compound 811, ((2-(((3S,6S,9aS)-3-(3-(6-cyanopyridin-2-yl)azetidine-1-carbonyl)-5-oxooctahydro-1H-pyrrolo[1,2-a]azepin-6-yl)carbamoyl)benzo [b]thiophen-5-yl)difluoromethyl) phosphonic acid]
3000 to 30000 nM | 100 to 1000 nM | O=C(N[C@H]1CCC[C@H]2CC[C@@H](C(=O)N3CC(c4nccc(C(F)(F)F)n4)C3)N2C1=O)c1cc2cc(C(F)(F)P(=O)(O)O)ccc2s1 [Compound 812, (difluoro(2-(((3S,6S,9aS)-5-oxo-3-(3-(4-(trifluoromethyl)pyrimidin-2-yl)azetidine-1-carbonyl)octahydro-1H-pyrrolo[1,2-a]azepin-6-yl)carbamoyl)benzo [b]thiophen-5-yl)methyl) phosphonic acid]
300 to 3000 nM | 1000 to 10000 nM | CC1(C)CC(c2ccccc2)CN1C(=O)[C@@H]1CC[C@@H]2CCCC[C@H](NC(=O)c3cc4cc(C(F)(F)P(=O)(O)O)ccc4s3)C(=O)N21 (stereo partly drawn) [Compound 813, ((2-(((3S,6S,10aS)-3-(2,2-dimethyl-4-phenylpyrrolidine-1-carbonyl)-5-oxodecahydropyrrolo [1,2-a]azocin-6-yl)carbamoyl)benzo [b]thiophen-5-yl)difluoromethyl) phosphonic acid]
300 to 3000 nM | 1000 to 10000 nM | CC1(C)C[C@@H](c2ccccc2)CN1C(=O)[C@@H]1CC[C@@H]2CCCC[C@H](NC(=O)c3cc4cc(C(F)(F)P(=O)(O)O)ccc4s3)C(=O)N21 [Compound 814, ((2-(((3S,6S,10aS)-3-((S)-2,2-dimethyl-4-phenylpyrrolidine-1-carbonyl)-5-oxodecahydropyrrolo [1,2-a]azocin-6-yl)carbamoyl)benzo [b]thiophen-5-yl)difluoromethyl) phosphonic acid]
300 to 3000 nM | 1000 to 10000 nM | CC1(C)C[C@H](c2ccccc2)CN1C(=O)[C@@H]1CC[C@@H]2CCCC[C@H](NC(=O)c3cc4cc(C(F)(F)P(=O)(O)O)ccc4s3)C(=O)N21 [Compound 815, ((2-(((3S,6S,10aS)-3-((R)-2,2-dimethyl-4-phenylpyrrolidine-1-carbonyl)-5-oxodecahydropyrrolo [1,2-a]azocin-6-yl)carbamoyl)benzo [b]thiophen-5-yl)difluoromethyl) phosphonic acid]
